Reference: US7375106B2, “Synergistic combination of an opioid analgesic and a NSAID” (N.V. Organon, priority 2002, dated 2008)

Assays:
[1] = system: licking of the formalin injected paw (Phase 2, 20-30 min); experiment: Formalin paw test, determination of ID50 of single agents (experiment 1); format: in vivo, male mice (Hsd Ola:ICR); conditions: single agent; for Effect on Phase 2 licking: i.v., increasing doses; for ID50 (μg/kg) for 2nd phase of licking (95% confidence limits): intravenously 15 min before formalin (20 μl; 3%), 20-30 min after formalin
Method: Six mice were observed simultaneously.
All test agents were administered via a tail vein. […] Each animal was used once only.
Animals (n=6 for each dose/drug) received increasing doses of morphine, ketorolac, indomethacin, the hydrochloride salt of Org 41793 (Org 43273) or vehicle administered intravenously 15 min before injection of formalin (20 μl; 3%) into the plantar surface of the left hindpaw. Data were plotted as the mean time spent licking the formalin injected paw±s.e.m for each of the two time periods (0-5 & 20-30 min) and an ID50 for the group calculated. To calculate the ID50 for the second phase of licking, the time spent licking following test drug treatment was calculated as a percentage of the time spent licking by vehicle-treated mice. An ID50 was then calculated using a non-linear regression fit, sigmoidal dose-response with constants of 0 and 100 for the bottom and top, respectively (GraphPad Prism software).

[2] = system: licking of the formalin injected paw (Phase 2, 20-30 min); experiment: Formalin paw test, co-administration in constant dose ratio with isobolographic analysis (experiment 2); conditions: for Theoretical ID50 (μg/kg) for 2nd phase of licking (95% confidence limits): component dose at theoretical additive point; for Theoretical ID50 (μg/kg) for 2nd phase of licking (95% confidence limits) / Experimental ID50 (μg/kg) for 2nd phase of licking (95% confidence limits): i.v.; for Experimental ID50 (μg/kg) for 2nd phase of licking (95% confidence limits): component dose, constant dose ratio; for Effect on amount of morphine or Org 41793 required to elicit antinociception: second phase of licking
Method: In mice, recording the time spent licking or biting the injected paw is the most common method of behavioural assessment.
Experiments were performed on male mice (Hsd Ola:ICR) from Harlan UK Ltd. (Bicester, UK). Subjects were grouped on receipt and acclimatised for a minimum of 5 days at a constant temperature (21°±1° C.) under a 12-hour light/12-hour dark cycle. Mice were tail-marked. At the end of the study all mice were euthanized with CO2 or cervical dislocation.
Following subcutaneous formalin injection into the plantar surface of the paw, animals were placed in a Perspex box on a glass plate. A piece of black cardboard was placed on top of the box. A video camera (Sony) placed beneath the glass plate was then used to record the mice for 45 min after formalin injection. Six mice were observed simultaneously. The video camera was linked to a PC and the video images captured as MPEG files using a software package (Studio MP10). The MPEG file was later transferred to CD for offline analysis. A behavioural scoring program (The Observer) was then used to measure the time the mice spent licking the injected paw. Two blocks of time were analysed: 0-5 min (Phase 1) and 20-30 min (Phase 2). These two time periods were chosen to reflect the two phases of licking that typically occur after formalin injection.
All test agents were administered via a tail vein. […] Animals were weighed immediately prior to testing and all test agents were administered in a dosing volume of 5 ml/kg. Each animal was used once only.
The ID50 values calculated in experiment 1 for the second phase licking as previously described were used for this experiment. […] The ID50 of the total dose of the mixture was then calculated from this dose-response curve.
Testing for a significant difference by t-test was not possible since confidence intervals (CIs) were not symmetric around the theoretical additive ID50.

[3] = combination Org 41793 with indomethacin
[4] = combination Org 41793 with indomethacin, listed as indomethacin
[5] = combination Org 41793 with ketorolac
[6] = combination Org 41793 with ketorolac, listed as ketorolac

Compound | Effect on Phase 2 licking [1] | ID50 (μg/kg) for 2nd phase of licking (95% confidence limits) [1] | ID50 (μg/kg) for 2nd phase of licking (95% confidence limits) ([1]; listed as indomethacin) [µg/kg] | Theoretical ID50 (μg/kg) for 2nd phase of licking (95% confidence limits) [2, 3] | Theoretical ID50 (μg/kg) for 2nd phase of licking (95% confidence limits) [2, 4] [µg/kg] | Experimental ID50 (μg/kg) for 2nd phase of licking (95% confidence limits) [2, 3] | Experimental ID50 (μg/kg) for 2nd phase of licking (95% confidence limits) [2, 4] [µg/kg] | Effect on amount of morphine or Org 41793 required to elicit antinociception [2] | ID50 (μg/kg) for 2nd phase of licking (95% confidence limits) ([1]; listed as morphine) [µg/kg] | ID50 (μg/kg) for 2nd phase of licking (95% confidence limits) ([1]; listed as ketorolac) [µg/kg] | Theoretical ID50 (μg/kg) for 2nd phase of licking (95% confidence limits) [2, 5] | Theoretical ID50 (μg/kg) for 2nd phase of licking (95% confidence limits) [2, 6] [µg/kg] | Experimental ID50 (μg/kg) for 2nd phase of licking (95% confidence limits) [2, 5] | Experimental ID50 (μg/kg) for 2nd phase of licking (95% confidence limits) [2, 6] [µg/kg]
COc1ccc2c(c1)c(CC(=O)O)c(C)n2C(=O)c1ccc(Cl)cc1 [Indomethacin, indomethacin] | dose-dependent inhibition | 340 (218-531) μg/kg | 340 | Indomethacin: 170 (109- μg/kg | 170 | Indomethacin: 40 (26-58) μg/kg | 40 | opioid sparing |  |  |  |  |  | 
CN1CC[C@]23c4c5ccc(O)c4O[C@H]2[C@@H](O)C=C[C@H]3[C@H]1C5.O.O.O.O.O.O=S(=O)(O)O [Morphine, Morphine sulphate pentahydrate] | dose-dependent inhibition | 870 (496-1522) μg/kg |  |  |  |  |  |  | 870 |  |  |  |  | 
O=C(c1ccccc1)c1ccc2n1CCC2C(=O)O (racemic) [Ketorolac, (±)-5-benzoyl-2,3-dihydro-1H-pyrrolizine-1-carboxylic acid, 2-amino-2-(hydroxymethyl)-1,3-propanediol] | dose-dependent inhibition | 70 (40-134) μg/kg |  |  |  |  |  | opioid sparing |  | 70 | Ketorolac: 35 (20-67) μg/kg | 35 | Ketorolac: 5 (2-12) μg/kg | 5
C=CCN1C[C@H](C)N([C@@H](c2cccc(O)c2)c2cccc(C(=O)N(C)c3cccc(F)c3)c2)C[C@H]1C [Org 41793, 3-[(αR)-α-((2S,5R)-4-allyl-2,5-dimethyl-1-piperazinyl)-3-hydroxybenzyl]-N-(3-fluorophenyl)-N-methylbenzamide] | dose-dependent inhibition | 92 (60-140) μg/kg |  |  |  |  |  |  |  |  |  |  |  | 
